Test results as given in patent US12371748B2, “Genetic markers for predicting responsiveness to therapy with HDL-raising or HDL mimicking agent” (Hoffmann-La Roche Inc., priority 2014, dated 2025).
Where two headings read alike, the source gives them in different places.

Assays:
[1] = humans; cited from earlier work
[2] = rabbits; cited from earlier work
CETP [3] = target: T1, CETP (Oryctolagus cuniculus, UniProt P22687); settings: rabbits; cited from earlier work
T1 construct: host or cells: rabbits (in vivo; endogenous plasma CETP)
T1 sequence (P22687 2-497): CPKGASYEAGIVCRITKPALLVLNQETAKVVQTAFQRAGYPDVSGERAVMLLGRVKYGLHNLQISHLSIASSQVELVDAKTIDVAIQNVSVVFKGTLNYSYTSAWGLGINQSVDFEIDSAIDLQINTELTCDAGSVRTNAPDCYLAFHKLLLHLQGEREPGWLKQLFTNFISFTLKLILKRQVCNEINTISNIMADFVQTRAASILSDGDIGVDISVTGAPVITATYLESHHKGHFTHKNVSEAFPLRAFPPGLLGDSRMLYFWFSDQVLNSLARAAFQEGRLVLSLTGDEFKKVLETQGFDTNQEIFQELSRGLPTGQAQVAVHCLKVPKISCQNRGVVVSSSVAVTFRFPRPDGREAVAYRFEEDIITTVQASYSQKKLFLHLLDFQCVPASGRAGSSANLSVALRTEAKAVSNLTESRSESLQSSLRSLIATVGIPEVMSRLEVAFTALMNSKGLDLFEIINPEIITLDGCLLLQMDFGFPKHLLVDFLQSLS

CETP [4] = target: T2, CETP (Homo sapiens, UniProt P11597); settings: humans; cited from earlier work
T2 construct: host or cells: humans (in vivo; endogenous plasma CETP)
T2 sequence (P11597 18-493): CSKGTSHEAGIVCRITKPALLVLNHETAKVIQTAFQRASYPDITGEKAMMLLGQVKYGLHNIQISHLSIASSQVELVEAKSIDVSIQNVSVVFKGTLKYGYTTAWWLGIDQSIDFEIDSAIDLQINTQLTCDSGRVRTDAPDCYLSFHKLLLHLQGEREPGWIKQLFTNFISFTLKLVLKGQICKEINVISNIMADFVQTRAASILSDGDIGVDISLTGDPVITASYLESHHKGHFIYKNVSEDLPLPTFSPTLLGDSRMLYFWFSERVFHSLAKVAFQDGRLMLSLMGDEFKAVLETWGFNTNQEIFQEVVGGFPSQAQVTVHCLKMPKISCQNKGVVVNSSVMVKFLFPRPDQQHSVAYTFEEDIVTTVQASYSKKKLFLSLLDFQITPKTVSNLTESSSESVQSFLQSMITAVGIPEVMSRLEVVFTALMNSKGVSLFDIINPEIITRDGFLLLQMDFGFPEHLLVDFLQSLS

[5] = dal-OUTCOMES: change in plasma lipids by rs1967309 genotype; format: in vivo, human; settings: for change in total cholesterol at 1 month: dalcetrapib arm
Procedure: All patients were following individualized programs to target LDL cholesterol levels of 100 mg per deciliter (2.6 mmol per liter) or lower by statin if tolerated and diet. No specific statin agent was specified, and patients were not excluded based on LDL cholesterol values. Patients with serum triglyceride levels of 400 mg per deciliter (4.5 mmol per liter) or higher were excluded. (Schwartz G G et al. N Engl J Med 2012; 367:2089-99) Eligible participants to the dal-Outcomes trial entered a single-blind placebo run-in period of approximately 4 to 6 weeks to allow for patients to stabilise and for completion of planned revascularisation procedures. At the end of the run-in period, eligible patients in stable condition were randomised in a 1:1 ratio to 600 mg of dalcetrapib or placebo on top of evidence-based medical care for acute coronary syndrome. Cardiovascular events were adjudicated by an independent clinical endpoint committee. For the pharmacogenomics study, 6338 patients were recruited from April 2008 through July 2010 at 461 sites in 14 countries and provided written informed consent to participate to the genetic study of the dal-OUTCOMES trial. DNA was extracted from whole blood. Following genomic data cleanup, samples from 5749 Caucasian patients were used for the discovery genome-wide association study (GWAS).
This effect was not observed in the placebo arm. […] During the dalcetrapib treatment period, GG carriers had overall slightly lower LDL-cholesterol levels (adjusted P=0.048; repeated measures analysis, FIG. 4).

With `CCC(CC)CC1(C(=O)Nc2ccccc2SC(=O)C(C)C)CCCCC1` [dalcetrapib, thioisobutyric acid S-(2-{[1-(2-ethyl-butyl)-cyclohexanecarbonyl]-amino}-phenyl) ester] as the molecule, how does the LDL cholesterol [1] read?
Its LDL cholesterol is “decrease LDL cholesterol”.

And the “plasma HDL cholesterol” value [1]?
The value was “increase plasma HDL cholesterol”.

What about the LDL cholesterol [2] of the same molecule?
Its LDL cholesterol is “decrease LDL cholesterol”.

What about the “plasma HDL cholesterol” value [2] of the same molecule?
The value was “increase plasma HDL cholesterol”.

What about the CETP activity (CETP [3]) of the same molecule?
The CETP activity was “inhibitor of CETP activity”.

What about the CETP activity (CETP [4]) of the same molecule?
The CETP activity was “inhibitor of CETP activity”.

What about the “change in total cholesterol at 1 month” value ([5]; rs1967309 AA) of the same molecule?
The value was 13.8 ± 24.0 mg/dL.

What about the “change in total cholesterol at 1 month” value ([5]; rs1967309 AG) of the same molecule?
Its value is 12.9 ± 30.3 mg/dL.

What about the “change in total cholesterol at 1 month” value ([5]; rs1967309 GG) of the same molecule?
The value was 10.0 ± 23.3 mg/dL.

And the “change in LDL-cholesterol after 1 month of dalcetrapib treatment” value (from here on “change in LDL-cholesterol after 1 month”) ([5]; rs1967309 AA)?
The value was “+0.6±21.0 mg/dl”.

What about the “change in LDL-cholesterol after 1 month” value ([5]; rs1967309 AG) of the same molecule?
Its value is -1.0 ± 20.0 mg/dL.

And the “change in LDL-cholesterol after 1 month” value ([5]; rs1967309 GG)?
Its value is -2.0 ± 20.0 mg/dL.
